Laboratory results as given in patent publication US4859186A, “Pulpotomy agent and method of use” (priority 1988, dated 1989).

Legend:
[1] = target: bovine serum albumin (BSA) in collagen-BSA gel wafers (Bos taurus, UniProt P02769); assay: Collagen-BSA gel wafer assay: BSA diffusing from gel after fixation; conditions: for % of control retained (diluted 10 fold) / % change relative to fresh glutaraldehyde / % of control retained / % change relative to freshly prepared 4% glutaraldehyde: diluted 10 fold
Excerpt: (§1) Two assays were used to evaluate the effectiveness of the composition of the present invention as a pulpotomy agent. The first was based on the diffusion of bovine serum albumin (BSA) from collagen-BSA gel wafers following fixation. That methodology was based on the method described in Flitney, F. W., "The time course of the fixation of albumin by formaldehyde, glutaraldehyde, acrolein and other higher aldehydes," 85 J. Royal Microscop. […] 353 (1966)). The collagen-BSA gel was formulated by Flitney to simulate the cytoplasm of the cell. Diffusion of BSA from the gel was intended to provide a reproducible model by which the relative change in the rate of leakage of protein through the cell membrane could be monitored during fixation with different techniques. This procedure was also modified as described in Example III to allow the evaluation of the depth of penetration of the composition of the present invention into adjoining cells of the pulpal tissue. The second assay was the determination of residual lactate dehydrogenase activity (LDH) in bovine pulp following treatment with the composition of the present invention.
The effectiveness of the fixative ability of the pulpotomy agent of the present invention was assayed according to the method set out in Flitney, supra. Briefly, that method is as follows. Collagen gels (0.3 g/2.8 ml) were prepared containing a physiological salt solution and bovine serum albumin (1 g BSA/10 ml). The mixture was dissolved in a boiling water bath and measured amounts were pipetted into plastic vials. Collagen-BSA wafers were removed from the vials and incubated in a buffered glutaraldehyde solution and the 4% glutaraldehyde-containing pulpotomy agent prepared as described in Example I, above, for 4 minutes. Wafers treated with distilled water or sodium phosphate buffer for identical time periods were used as respective controls. Following incubation, relative fixation of protein in the gels was ascertained by measuring the amount of BSA which diffuses from the gels into 4 ml of water during a 30 minute period. BSA was quantified by the method described by Bradford, M. M., "A rapid and sensitive method for quantification of microgram quantities of protein utilizing the principles of protein dye binding," 72 Anal. Biochem. 248 (1976).
The quantity of BSA which diffused from each gel is reported below as a percentage of control lost or retained.

[2] = system: lactate dehydrogenase (LDH) in bovine pulp; assay: Residual LDH activity in calf pulp after treatment; assay type: biochemical
Excerpt: as §1
The effectiveness of the pulpotomy agent prepared as described in Example I, above, was also evaluated by an assay for residual LDH Activity. In this assay, calf pulp was harvested from freshly extracted molars, minced into pieces of approximately 1 mm^3, divided into aliquots weighing approximately 0.5 g, and stored at -20° C. until used. After thawing each aliquot was wet weighed and incubated in the 4% glutaraldehyde-containing pulpotomy agent prepared as described in Example I for 4 minutes. The treated sample was homogenized for one minute in ten ml of 0.2M Tris, pH 7.3, using a homogenizer. Following centrifugation for ten minutes at 300 rpm on a clinical centrifuge, the supernatant was decanted. One hundred microliters of the supernatant was added to a cuvette containing 2.8 ml Tris HCl, 1.0 ml of […], and 0.1 ml of 30 mM sodium pyruvate and vortexed for 10 seconds. The change in absorbence per minute was recorded on a spectrophotometer at 345 nm at room temperature. The activities were calculated as units/g wet weight/min, and the mean was calculated for five samples in each group. The values are reported as a percentage of controls and statistics were the same as described in Example II, above.

[3] = target: bovine serum albumin (BSA) in collagen-BSA gels (Bos taurus, UniProt P02769); assay: Penetration (depth of fixation) assay: collagen-BSA gels submerged intact in vials
Excerpt: as §1

[4] = stored at room temperature (25° C.) for eight months

Sequence of bovine serum albumin (BSA) in collagen-BSA gel wafers (P02769 25-607): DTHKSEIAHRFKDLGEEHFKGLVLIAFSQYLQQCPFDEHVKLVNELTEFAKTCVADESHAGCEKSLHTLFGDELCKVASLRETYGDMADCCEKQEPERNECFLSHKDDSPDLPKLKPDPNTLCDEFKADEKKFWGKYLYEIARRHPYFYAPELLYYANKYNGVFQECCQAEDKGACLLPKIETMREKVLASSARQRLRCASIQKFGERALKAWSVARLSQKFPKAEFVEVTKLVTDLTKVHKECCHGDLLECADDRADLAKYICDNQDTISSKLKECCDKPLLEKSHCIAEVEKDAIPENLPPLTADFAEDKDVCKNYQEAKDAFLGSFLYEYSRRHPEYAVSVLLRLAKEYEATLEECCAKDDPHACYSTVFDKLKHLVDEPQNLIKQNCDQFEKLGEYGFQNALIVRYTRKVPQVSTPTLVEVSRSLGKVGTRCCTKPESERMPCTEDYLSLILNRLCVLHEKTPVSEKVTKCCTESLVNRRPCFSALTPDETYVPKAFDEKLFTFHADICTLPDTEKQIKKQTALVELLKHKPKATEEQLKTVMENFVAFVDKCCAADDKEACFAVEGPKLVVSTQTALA
Sequence of bovine serum albumin (BSA) in collagen-BSA gels (P02769 25-607): as above

For `O=CCCCC=O` [4% Glutaraldehyde, glutaraldehyde], the “% of control retained (diluted 10 fold)” value ([1]; Fresh, mean of four samples) was 80%, the “% of control gel retained” value ([1]; Fresh, heat assay, mean of four samples) was 80% and the “% of control retained (undiluted solutions)” value ([1]; Fresh, mean of six samples) was 85%. For the same compound, the “% change relative to fresh glutaraldehyde” value ([1]; Heated at 37° C. for 3 Months) was -34%, the “% of control retained” value ([1]; Heated at 37° C. for 3 Months) was 53% and the “% of control gel retained” value ([1]; Heated: storage at 37° C. for three months) was 53%. The “% change relative to fresh glutaraldehyde” value ([1]; Stored at 25° C. for 3 Months) was -21%, the “% of control retained” value ([1]; Stored at 25° C. for 3 Months) was 63% and the “% change relative to freshly prepared 4% glutaraldehyde” value ([1]; cold nine months) was -8%. For the same compound, the “% of control retained” value ([1]; made up fresh, mean of four samples) was 80%, the “% change relative to freshly prepared 4% glutaraldehyde” value ([1]; room temperature nine months) was -11% and the “% of control retained (undiluted solutions)” value [1, 4] was 85%. For the same compound, the “% of control retained (diluted 10 fold)” value ([1]; stored at room temperature for nine months) was 72%, the “% of control retained (undiluted solutions)” value ([1]; stored cold (5° C.) for eight months) was 85% and the “% of control retained (diluted 10 fold)” value ([1]; stored in the cold for nine months) was 72%. The “% of control retained (BSA in gel)” value ([1]; wafers incubated 4 minutes, BSA diffusing into 4 ml water during 30 minutes, five samples) was 78%, the “% of control retained (LDH activity)” value ([2]; Fresh, mean of 5 samples) was 6% and the “% of control retained (residual LDH activity)” value ([2]; calf pulp incubated 4 minutes, five samples) was 3.0%. The “LDH inhibition versus concentration” value ([2]; different concentrations for any treatment time, FIG. 3) was “log-dose response”, the “% of control retained (LDH activity)” value [2, 4] was 3% and the “% of control retained (LDH activity)” value ([2]; stored in the cold (5° C.) for eight months) was 4%. For the same compound, the “secondary diffusion of BSA (depth of penetration)” value ([3]; 2, 4, and 8 percent solutions, FIG. 2) was “decreased by approximately the same amount” and the “% of control retained (BSA in gel, penetration)” value ([3]; vials with gels intact submerged 4 minutes, five samples) was 27%.
